Reference: US9260500B2, “Peptide and use thereof” (Takeda Pharmaceutical Company Limited, priority 2009, dated 2016)

Tested on: male C57BL/6J mouse
Experiment: 3-Day Continuous Subcutaneous Administration Test-2 (food intake suppressing activity)
Assay type: in vivo
Conditions: 0.03 mg/kg/day, subcutaneous Alzet pump, food consumption as of 2 days after start; versus solvent (50% DMSO) control group
Protocol: (5) Test Method: 3-Day Continuous Subcutaneous Administration Test-2
The food intake suppressing activity of the compound of the present invention was examined by the following method.
The test compound was dissolved in a solvent (50% DMSO) so that sustained release would occur at 0.03 mg/kg/day, and the solution was filled in the Alzet Pump (DURECT Corporation, model: 1003D). After the filling, the pump was immersed in physiological saline for priming, and then used. The pump was embedded by the following method. Each male C57BL/6J mouse at 9-10 weeks of age (25° C., allowed to take food and water ad libitum; 12-hour bright-12-hour dark cycle) was anesthetized; the skin in the upper back thereof was incised, and the above-mentioned pump was embedded subcutaneously; the incision was sutured. After weighing, this mouse was returned to the rearing cage (reared alone), and given previously weighed food; food consumption as of 2 days after the start of administration was measured. The food consumption was calculated by subtracting the amount of remaining food from the weight of the food given on the day of the start of administration. From the food consumption obtained, the food intake suppression rate (%) of each test compound was calculated using the following the formula.
A group receiving administration of the aforementioned solvent alone was the control group.
Food intake suppression rate (%): (Food consumption for control group−food consumption for test compound administration group)/food consumption for control group×100

Row | Substance | food intake suppression rate (%)
1 | 4-Imidazolecarbonyl-[D-Pro24, Pya(4)26, Cha27,36, Iva28, Lys(Ac)30, Aib31]-PYY(23-36) [compound No. 371] | 18.6
2 | Ac-[Glu23, D-Pro24, Iva25, Pya(4)26, Cha27,36, Leu(Me)28, Lys30, Aib31]-PYY(23-36) [compound No. 363] | 27.7
3 | Carbamoyl-[D-Hyp24, Iva25, Pya(4)26, Cha27,36, Leu(Me)28, Lys30, Aib31]-PYY(23-36) [compound No. 364] | 37.3
4 | Thp(4)-CH2NHCO-[D-Hyp24, Iva25, Pya(4)26, Cha27,36, Leu(Me)28, Lys30, Aib31]-PYY(23-36) [compound No. 359] | 43.4
5 | Thp(4)-CO-[D-Hyp24, Iva25, Pya(4)26, Cha27,36, Leu(Me)28, Lys30, Aib31]-PYY(23-36) [compound No. 361] | 23.3
6 | Thp(4)-NHCO-[D-Hyp24, Iva25, Pya(4)26, Cha27,36, Leu(Me)28, Lys30, Aib31]-PYY(23-36) [compound No. 358] | 62.5
7 | [D-Hyp24, Iva25, Pya(4)26, Cha27,36, Leu(Me)28, Lys(Ac)30, Aib31]-PYY(23-36) [compound No. 373] | 17.5
